The values below come from ChEMBL document CHEMBL5356983, “Design and optimization of piperlongumine analogs as potent senolytics” (Bioorg Med Chem Lett, 2024).

The subject of data set [1] is WI-38. In words: Senolytic activity in ionizing radiation induced human WI-38 senescent cells by PI staining based flow cytometry analysis. The format is functional, cell-based. In general terms: In flow cytometry, cells or beads pass a laser one at a time.
Data set [2] can be described thus: Senolytic activity in non-senescent human WI-38 cells by PI staining based flow cytometry analysis. In kind it is toxicity, cell-based. The conditions noted are these: non-senescent WI-38 cells.
Data set [3] in a line: Selectivity ratio IC50 for non-senescent human WI-38 cells to IC50 for ionizing radiation induced human WI-38 senescent cells. In kind it is functional.

For orientation: IC50 means the midpoint of a concentration-inhibition curve. Low readings indicate higher potency, high ones lower potency.

In the case of `COc1cc(/C=C/C(=O)N2CC=CCC2=O)cc(OC)c1OC`, the concentration for half-maximal inhibition (IC50) is 27.5 µM in data set [1] and greater than 80 µM in data set [2]. Besides, the “Ratio IC50” value in data set [3] is on record as greater than 2.9.

Consider `CN(C)C/C=C/C(=O)N1CCC=CC1=O`, for which the IC50 is 2.8 µM in data set [1] and 9.7 µM in data set [2]. Besides, the “Ratio IC50” value in data set [3] is 3.5.

In turn, `COc1cc(/C=C/C(=O)N2CCC=CC2=O)cc(OC)c1OC` [PIPLARTINE] showed a 50% inhibitory concentration (IC50) in data set [2] of 20.3 µM. Besides, in data set [3], the “Ratio IC50” value was found to be 2.5.

For `CN(C)CCOc1ccc(/C=C/C(=O)N2CCC=C(Cl)C2=O)cc1`, the half-inhibitory concentration (IC50) in data set [1] turned out to be 2.9 µM; in data set [2], 4.4 µM. In data set [3], the “Ratio IC50” value was 1.5.

As to `COc1ccc(/C=C/C(=O)N2CCCC=C(Cl)C2=O)cc1`, the values for the IC50 in data set [1] and in data set [2] were 0.16 µM and 1.5 µM, respectively. In addition, in data set [3], the “Ratio IC50” value came out at 9.3.

As for `COc1cc(/C=C/C(=O)N2CCC(=O)/C(=C/c3ccc(F)cc3F)C2)cc(OC)c1OC`, the IC50 in data set [1] is 14.7 µM; in data set [2], 62.5 µM. For the same compound, the “Ratio IC50” value in data set [3] came out at 4.2.

Consider `COc1ccc(/C=C/C(=O)N2CCC=C(Br)C2=O)cc1`, for which the IC50 in data set [1] is 0.63 µM; in data set [2] it was 1.1 µM. The “Ratio IC50” value in data set [3] was 1.8.

In the case of `CN(C)CCOc1ccc(/C=C/C(=O)N2CCCC=C(Cl)C2=O)cc1`, the IC50 in data set [1] came to 2.4 µM; in data set [2], 3 µM. Also, the “Ratio IC50” value in data set [3] is given as 1.3.

For `COc1cc(/C=C/C(=O)N2CCC=C(Cl)C2=O)cc(OC)c1OC`, the half-maximal inhibitory concentration (IC50) in data set [1] was found to be 0.65 µM; in data set [2] it was 5.3 µM. In data set [3], the “Ratio IC50” value was 8.1.

For the compound `COc1cc(/C=C/C(=O)N2CCC=C(Br)C2=O)cc(OC)c1OC`, the results for the 50% inhibitory concentration (IC50) in data set [1] and in data set [2] were 0.52 µM and 5.4 µM, respectively. In addition, in data set [3], the “Ratio IC50” value came to 10.4.

Regarding `COc1cc(C#CC(=O)N2CCC=CC2=O)cc(OC)c1OC`, the figures for the IC50 in data set [1] and in data set [2] were 4.4 µM and 13.9 µM, respectively. Also, the “Ratio IC50” value in data set [3] is on record as 3.2.

Take `COc1cc(/C=C/C(=O)N2CCC=C(F)C2=O)cc(OC)c1OC`: the IC50 was found to be 15.3 µM in data set [1] and 12.1 µM in data set [2]. For the same compound, the “Ratio IC50” value in data set [3] was determined as 0.8.

For `CN(C)CCOc1ccc(/C=C/C(=O)N2CCCC=C(Br)C2=O)cc1`, the figures for the IC50 in data set [1] and in data set [2] were 2.9 µM and 3.4 µM, respectively. Moreover, the “Ratio IC50” value in data set [3] is recorded as 1.2.

As to `COc1cc(/C=C/C(=O)N2CC(O)C=CC2=O)cc(OC)c1OC` (stereo unspecified), the IC50 came out at 7.4 µM in data set [1] and 11.3 µM in data set [2]. In addition, the “Ratio IC50” value in data set [3] stood at 1.5.

Take `COc1cc(/C=C/C(=O)N2OCC=CC2=O)cc(OC)c1OC`: the half-maximal inhibitory concentration (IC50) in data set [1] was 8.1 µM; in data set [2], 48.9 µM. The “Ratio IC50” value in data set [3] was found to be 6.

On to `CN(C)CCOc1ccc(/C=C/C(=O)N2CCC=C(Br)C2=O)cc1`, for which the results for the 50% inhibitory concentration (IC50) in data set [1] and in data set [2] were 3.2 µM and 4.8 µM, respectively. Further, the “Ratio IC50” value in data set [3] was 1.5.

As to `COc1cc(/C=C/C(=O)N2C=CC=CCC2=O)cc(OC)c1OC`, the concentration for half-maximal inhibition (IC50) was 21.1 µM in data set [1] and 26.7 µM in data set [2]. The “Ratio IC50” value in data set [3] is 1.3.

On to `COc1ccc(/C=C/C(=O)N2CCC=C(Cl)C2=O)cc1`, for which the IC50 in data set [1] turned out to be 0.51 µM; in data set [2] it was 0.35 µM. Moreover, in data set [3], the “Ratio IC50” value turned out to be 0.7.

`CN(C)CCOc1ccc(/C=C/C(=O)N2CCC=CC2=O)cc1`: the half-maximal inhibitory concentration (IC50) in data set [1] was 1.5 µM; in data set [2], 19.5 µM. In addition, the “Ratio IC50” value in data set [3] came out at 13.3.

For `COc1cc(/C=C/C(=O)N2CCC(N(C)C)CC2=O)cc(OC)c1OC` (stereo unspecified), the 50% inhibitory concentration (IC50) in data set [1] was found to be 10.2 µM; in data set [2], 34.6 µM. Besides, in data set [3], the “Ratio IC50” value was determined as 3.4.

On to `COc1cc(/C=C/C(=O)N2CCC=C(I)C2=O)cc(OC)c1OC`, for which the IC50 in data set [1] is 2.3 µM; in data set [2], 16.3 µM. For the same compound, in data set [3], the “Ratio IC50” value is listed as 7.1.

As for `COc1cc(/C=C/C(=O)N2CCC(=O)CC2)cc(OC)c1OC`, the IC50 in data set [1] and in data set [2] was greater than 40 µM each time.

As for `COc1cc(/C=C/C(=O)N2CCC=C(C(F)(F)F)C2=O)cc(OC)c1OC`, the 50% inhibitory concentration (IC50) in data set [1] and in data set [2] was greater than 40 µM throughout.

For the compound `COc1cc(/C=C/C(=O)N2CCC(=O)/C(=C/c3ccc(F)cc3)C2)cc(OC)c1OC`, the half-inhibitory concentration (IC50) in data set [1] worked out at 14 µM; in data set [2], 53.8 µM. Also, in data set [3], the “Ratio IC50” value came to 3.9.

As to `COc1cc(/C=C/C(=O)N2CCCC=C(Br)C2=O)cc(OC)c1OC`, the figures for the IC50 in data set [1] and in data set [2] were 0.56 µM and 3.6 µM, respectively. For the same compound, in data set [3], the “Ratio IC50” value was 6.5.

In the case of `COc1ccc(/C=C/C(=O)N2CCCC=C(Br)C2=O)cc1`, the 50% inhibitory concentration (IC50) in data set [1] worked out at 1.3 µM; in data set [2], 5.8 µM. Also, the “Ratio IC50” value in data set [3] was found to be 4.4.

As to `O=C(C#Cc1ccccc1)N1CCC=CC1=O`, the IC50 was determined as 0.93 µM in data set [1] and 1.5 µM in data set [2]. Also, the “Ratio IC50” value in data set [3] worked out at 1.6.

In the case of `COc1cc(/C=C/C(=O)N2CCCC=C(Cl)C2=O)cc(OC)c1OC`, the IC50 in data set [1] came to 0.45 µM; in data set [2], 1.7 µM. In addition, the “Ratio IC50” value in data set [3] is on record as 3.7.
